Assay results from patent US20250120643A1, “INGESTIBLE AND/OR IMPLANTABLE ARTICLES FOR MONITORING ELECTRICAL SIGNALS AND RELATED METHODS” (Massachusetts Institute of Technology, priority 2023, published 2025).
“Also recorded” adds a separate entry of the source.

Tests used:
[1] = system: gastric slow wave and all other recorded signals; experiment: Animal euthanasia study: MiGUT recording during administration of a barbiturate cocktail; format: in vivo, Yorkshire swine; details: pig, euthanization during recording; 1 ml/10 lbs
Excerpt: In an anesthetized Yorkshire pig, the device was delivered into the stomach and the electrode is shown to unroll and conform to the gastric mucosa along the greater curvature of the stomach (FIG. 7A). The reference electrode was localized near the stomach corpus (Schematic in FIG. 8). One and a half hours of recorded data in this experiment (at 62.5 samples/s) was used to generate a heat map of electrical activity vs time and channel (FIG. 7B(i)). Initial electrical activity seen in all channels following device placement (t=0 to 500 seconds) is most likely due to mechanical stimulation as a consequence of endoscopic visualization following device deployment. Channels near the pylorus (FIG. 7B(ii), channels 0-2) measured large amplitude, prolonged waveforms with periods of ca. 500 seconds with approximately 6 total cycles. […] These signals were also observed in separate experiments using the MiGUT system in different animals (N=5, Table 1).
For non-survival procedures, the animal was sedated with intramuscular injection of Telazol (tiletamine/zolazepam) 5 mg/kg and xylazine 2 mg/kg and euthanized using Fatal Plus (sodium pentobarbital), 1 ml/10 lbs. Heart rate and respiration rate are assessed via vitals monitor to ensure that the pig has been euthanized. […]

[2] = system: gastric slow wave; experiment: Azithromycin motility experiment: MiGUT recording in the stomach of anesthetized swine before and after intravenous prokinetic delivery; format: in vivo, Yorkshire swine; details: anesthetized pig
Procedure: Motivated by the capability of the MiGUT system to detect gastric slow wave activity, an experiment was designed to test if the changes or modulations in gastric motility could also be detected. The MiGUT system was again placed in the porcine stomach of an anesthetized animal and following baseline recording, azithromycin, a known prokinetic which activates motilin receptors, was intravenously delivered (1 mg/kg total dose) via ear catheter over the course of 5 minutes (FIG. 10A(i)). […] Replicates of this experiment produced similar increases in the slow wave power (FIG. 12).
All animal experiments were approved by and performed in accordance with the Committee on Animal Care at MIT. Yorkshire swine were obtained from Cummings School of Veterinary Medicine at Tufts University (Grafton, MA, USA) for in-vivo experiments. Pigs weighing approximately 60-100 kg were placed on a liquid diet for 24 hours the day before the study and were fasted overnight prior to the study. For device placement, animals were anesthetized using an intramuscular injection of midazolam 0.25 mg/kg and dexmedetomidine 0.03 mg/kg. Following sedation, animals were placed on thermal support and ophthalmic ointment was applied to both eyes. The animal was intubated and placed on isoflurane (2%) in oxygen and connected to a vital signs monitoring system. The MiGUT device was delivered orally into the stomach, using an orogastric tube and imaged using PENTAX EC-3870TLK (160 cm) to visualize the stomach with the animal in the left lateral position.
For azithromycin experiments, following ca. 1 hr of baseline recording in the anesthetized animal, 1 mg/kg animal weight of 20 mg/ml Azithromycin (Sigma-Aldrich) solution (in PBS pH adjusted with HCL, Thermofischer) was delivered via ear catheter over the course of 5 minutes. Measurements were conducted for a minimum of 45 minutes following drug delivery. Power was calculated by summing the square of the voltage measurements in a 25 minute time window. Difference in power was calculated as (Pinitial-Pfinal)/Pinitial.
Finally, to show this system can track changes in motility, Azithromycin was administered halfway during six studies. […] It was intravenously delivered at 1 mg/kg over 5 minutes through an ear catheter. […] This indicates throughout this duration of increased gastric activity (with suspected contractions), the electrodes continued to make good contact. Thus, MiGUT is shown to be able to track changes in gastric motility and maintain a reliable interface with the mucosa.

| SMILES | effect on waveforms recorded by MiGUT (slow wave and all other signals) [1] | changes in the respiration and heart rate frequency bands ([2]; 1 mg/kg i.v. over 5 minutes through ear catheter, six studies) | amplitude of the slow wave ([2]; 1 mg/kg i.v. over 5 minutes through ear catheter, six studies, seen in five of the recording channels) | power in the EKG or respiratory frequency windows ([2]; 1 mg/kg i.v. over 5 minutes, 25 minutes after vs 25 minutes prior to dosing) | power in the slow wave frequency range ([2]; 1 mg/kg i.v. via ear catheter over 5 minutes, 25 minutes after vs 25 minutes prior to dosing, seen in 5 of the 8 recording channels) |
| --- | --- | --- | --- | --- | --- |
| CCCC(C)C1(CC)C(=O)N=C([O-])NC1=O.[Na+] (centres unmarked) [barbiturate cocktail, sodium pentobarbital] | terminated; also recorded: cessation of all waveforms |  |  |  |  |
| CC[C@H]1OC(=O)[C@H](C)[C@@H](O[C@H]2C[C@@](C)(OC)[C@@H](O)[C@H](C)O2)[C@H](C)[C@@H](O[C@@H]2O[C@H](C)C[C@H](N(C)C)[C@H]2O)[C@](C)(O)C[C@@H](C)CN(C)[C@H](C)[C@@H](O)[C@]1(C)O [azithromycin] |  | no significant changes | significant increase | no significant change in power | noticeable increase in power |
